From patent publication US10183015B2, “Heterocyclic compounds and methods of use” (Medivation Technologies LLC, priority 2015, dated 2019)
“And” between values parts separate entries of the source, which are not always exact repeats. Equal values may be shown once.

Columns and labels:
[1] = test system: SCD1; assay: DIN mouse model: hepatic SCD1 gene expression; assay type: in vivo; design: key to 2^DDct: expression relative to vehicle group, normalized to 18S; conditions: for 2^DDct / DDct / Dct / SCD1: Gene Expression: SCD1, 20 mg/kg group; for 18S: Gene Expression: SCD1 table, 18S reference, 20 mg/kg group
Protocol: Gene expression analysis. Hepatic expression levels of genes involved in lipid metabolism (FAS, SREBP1, ACC1, SCD1), cholesterol metabolism (HMG-CoAR, LDLR), SREBP proteolysis (SCAP, INSIG1), ER stress (PERK), oxidative stress (NRF2), inflammation (MCP-1), and fibrosis (collagen 1α1) were quantified by RTqPCR. Expression level was normalized to 18S gene expression and relative expression to vehicle group was calculated with the […] method.
Male C57Bl/6J mice (8 weeks old) were housed in enriched ventilated cages (31×12.5×12.7 cm) throughout the experimental phase. Animals' cages litters were changed at least once a week. Animal were housed 5 per cage on inverted 12-hour light cycle (at 09:00 am lights off), 22±2° C. and 55±10% relative humidity. The acclimation period was 20 days. During the acclimation period, all mice were fed a standard diet (RM1 (E) 801492, SDS) and tap water ad libitum. After the acclimation period, mice were fed with the DIN diet (60% fat, cholesterol enriched) and fructose-enriched tap water ad libitum until the end of the experiment.
At 6 weeks of diet, mice were 4-hour fasted (09:00 am to 1:00 pm) and blood (150 μl/EDTA) was collected at 01:00 pm by retro-orbital bleeding under isoflurane anesthesia. Mice were then allocated in 2 homogenous groups (n=12/group) according to their plasma levels of ALT (average levels: 685U/L), AST (average levels: 627U/L) and HOMA-IR index (average value: 4.7), into 2 homogenous groups (see values at day 0 in Tables 15A and 15B ALT/AST and Tables 16A and 16B for HOMA-IR). Mice were then treated once daily by oral gavage with vehicle (Group 1) or Compound #37 at 20 mg/kg (Group 2) for 70 days.
Hepatic expression levels of genes involved in lipid (FAS, SREBP1, ACC1, SCD1), cholesterol metabolism (HMG-CoAR, LDLR), in SREBP proteolysis (SCAP, INSIG1), in ER stress (PERK), oxidative stress (NRF2), and inflammation (MCP-1) were not changed. However, expression of collagen 1α1, involved in liver fibrosis, was reduced by 66% in mice treated with Compound #37 (p<0.05 vs. vehicle).

[2] = test system: ob/ob mice; assay: ob/ob mice: liver triglycerides, fatty acids, total cholesterol; assay type: in vivo, mouse; conditions: 8 weeks; for liver fatty acids / liver total cholesterol / liver triglycerides: ob/ob mice
Protocol: Groups of mice were either untreated (group 1) or treated for 8 weeks with vehicle (group 2), or with Compound #37 at 5 mg/kg (group 3), 10 mg/kg (group 4), or 20 mg/kg (group 5). Treatment was daily by oral gavage in vehicle (20% HPβCD). Values are presented as mean±standard error of the mean (sem). A t test was performed to compare the untreated group and the vehicle group. Then Compound #37-treated groups were compared to the vehicle-treated group with a 1-way ANOVA+Dunnett's post-test. […] For each test, a p<0.05 was considered significant. Of note, animal #39, group 1 was excluded from the statistical analysis, due to low values for all parameters measured. Some other values were considered as out-liners and excluded from the statistical analysis when the value was far below the mean minus 2 SD. Excluded values are marked with an asterisk in Tables 21-23.

[3] = 5 mg/kg daily oral gavage, group mean
[4] = 5 mg/kg daily oral gavage, individual animal values, 5 mg/kg
[5] = 10 mg/kg daily oral gavage, group mean
[6] = 10 mg/kg daily oral gavage, individual animal values, 10 mg/kg
[7] = 20 mg/kg daily oral gavage, group mean
[8] = 20 mg/kg daily oral gavage, individual animal values (* = excluded from statistical analysis), 20 mg/kg

With `CC(C)Cc1cc(-c2nc(-c3ccc(NS(=O)(=O)C(F)(F)F)cc3Cl)cs2)ccn1` [Compound 37, N-(3-chloro-4-(2-(2-isobutylpyridin-4-yl)thiazol-4-yl)phenyl)-1,1,1-trifluoromethanesulfonamide] the “2^DDct” value ([1]; individual animal) was 1.76 and 2.30 and 0.58 and 0.87 and 0.84 and 1.40 and 1.54 and 1.64 and 0.61 and 0.42 and 2.57, the DDct ([1]; individual animal) was −0.81 and −1.20 and 0.78 and 0.20 and 0.26 and −0.48 and −0.62 and −0.71 and 0.72 and 1.25 and −1.36 and the Dct ([1]; individual animal) was 4.5 and 4.11 and 6.09 and 5.51 and 5.57 and 4.83 and 4.69 and 4.6 and 6.03 and 6.56 and 3.95. For the same molecule, the SCD1 ([1]; individual animal) was 17.05 and 16.66 and 18.93 and 17.94 and 17.92 and 17.42 and 16.42 and 17.11 and 17.53 and 18.11 and 16.3, the “2^DDct” value ([1]; mean, n 11) was 1.32 and the DDct ([1]; mean, n 11) was −0.18. The Dct ([1]; mean, n 11) was 5.1, the SCD1 ([1]; mean, n 11) was 17.4 and the 18S ([1]; individual animal, 20 mg/kg) was 12.55 (2×) and 12.84 and 12.43 and 12.35 (2×) and 12.59 and 11.73 and 12.51 and 11.5 and 11.55. The 18S ([1]; mean, n 11) was 12.3, the hepatic cholesterol concentrations [2] was “no effect” and the liver fatty acids [2, 3] was 35.9 nmol/mg liver. The liver total cholesterol [2, 3] was 12.5 μg/mg liver, the liver triglycerides [2, 3] was 80.3 μg/mg liver and the liver fatty acids [2, 4] was 21.39 nmol/mg liver and 38.65 nmol/mg liver and 43.56 nmol/mg liver and 43.68 nmol/mg liver and 42.30 nmol/mg liver and 26.81 nmol/mg liver and 31.47 nmol/mg liver and 34.22 nmol/mg liver and 40.04 nmol/mg liver and 36.50 nmol/mg liver. For the same molecule, the liver total cholesterol [2, 4] was 9.57 μg/mg liver and 13.21 μg/mg liver and 16.08 μg/mg liver and 15.08 μg/mg liver and 14.41 μg/mg liver and 9.18 μg/mg liver and 10.40 μg/mg liver and 12.19 μg/mg liver and 13.20 μg/mg liver and 13.39 μg/mg liver, the liver triglycerides [2, 4] was 32.54 μg/mg liver and 89.34 μg/mg liver and 118.92 μg/mg liver and 123.01 μg/mg liver and 111.66 μg/mg liver and 54.15 μg/mg liver and 66.99 μg/mg liver and 69.20 μg/mg liver and 107.70 μg/mg liver and 29.81 μg/mg liver and the liver fatty acids [2, 5] was 47.00 nmol/mg liver. The liver total cholesterol [2, 5] was 14.47 μg/mg liver, the liver triglycerides [2, 5] was 115.44 μg/mg liver and the liver fatty acids [2, 6] was 29.78 nmol/mg liver and 49.10 nmol/mg liver and 42.91 nmol/mg liver and 39.50 nmol/mg liver and 43.38 nmol/mg liver and 48.06 nmol/mg liver and 58.06 nmol/mg liver and 46.42 nmol/mg liver and 53.47 nmol/mg liver and 59.33 nmol/mg liver. For the same molecule, the liver total cholesterol [2, 6] was 11.02 μg/mg liver and 14.95 μg/mg liver and 15.25 μg/mg liver and 11.27 μg/mg liver and 14.07 μg/mg liver and 16.04 μg/mg liver and 17.20 μg/mg liver and 13.65 μg/mg liver and 14.90 μg/mg liver and 17.30 μg/mg liver, the liver triglycerides [2, 6] was 71.81 μg/mg liver and 110.46 μg/mg liver and 96.59 μg/mg liver and 67.76 μg/mg liver and 106.16 μg/mg liver and 153.12 μg/mg liver and 128.22 μg/mg liver and 157.22 μg/mg liver and 124.56 μg/mg liver and 138.07 μg/mg liver and the liver fatty acids [2, 7] was 42.4 nmol/mg liver. The liver total cholesterol [2, 7] was 13.8 μg/mg liver, the liver triglycerides [2, 7] was 106.3 μg/mg liver and the liver fatty acids [2, 8] was 46.82 nmol/mg liver and 11.67* nmol/mg liver and 43.19 nmol/mg liver and 56.93 nmol/mg liver and 36.64 nmol/mg liver and 43.21 nmol/mg liver and 40.58 nmol/mg liver and 33.97 nmol/mg liver and 38.27 nmol/mg liver and 41.87 nmol/mg liver. The liver total cholesterol [2, 8] was 16.75 μg/mg liver and 7.14* μg/mg liver and 13.56 μg/mg liver and 17.52 μg/mg liver and 11.98 μg/mg liver and 14.67 μg/mg liver and 14.39 μg/mg liver and 13.53 μg/mg liver and 12.83 μg/mg liver and 9.07 μg/mg liver and the liver triglycerides [2, 8] was 115.27 μg/mg liver and 10.45* μg/mg liver and 99.74 μg/mg liver and 160.82 μg/mg liver and 71.59 μg/mg liver and 95.60 μg/mg liver and 114.62 μg/mg liver and 92.80 μg/mg liver and 91.36 μg/mg liver and 115.09 μg/mg liver.
